In US11261230B2, “Synthetic somatostatin receptor ligands” (TEL HASHOMER MEDICAL RESEARCH INFRASTRUCTURE AND SERVICES …, priority 2014, dated 2022):
*1 amine or outer side, *2 acyl side, *3 side chain or, on linkers, in order; H or OH if unused. Where a SMILES comes first, the peptide text is derived from it. Bridges are numbered along the chain shown (N, C = ends). [ ]: non-standard residue; d: D form. The star is where a group is joined. FITC = O=C1OC2(c3ccc(O)cc3Oc3cc(O)ccc32)c2ccc(NC(=S)*)cc21; N(2-mercaptoethyl)Gly = O=C(CN(CCS[*:3])[*:1])[*:2]; GABA = NCCCC(=O)O

Legend:
[1] = system: PANC-1 tumors; assay: In vivo biodistribution in PANC-1 xenograft mice, Maestro fluorescence imaging of harvested tissue; conditions: 1 day after administration, tissues as named in the value
Description: Five different pharmaceutical compositions were prepared, each by dissolving 1 mg of a different Somatostatin receptor ligand in 1 liter PBS.
Solid human-derived tumors were induced in 15 nude mice by subcutaneous injection of a suspension containing ˜5□10^5 human cancer cells (PANC-1) into the flank area of the mice.
2-3 weeks after the injection of the cancer cells, it was observed that the mice developed solid tumors with diameters of approximately 5-10 mm.
0.3 ml of each one of the five pharmaceutical compositions were systemically administered to three of the fifteen xenograft mice by injection into the tail vein using a 30 G needle.
The fifteen mice were sacrificed and from the bodies tumors, pancreas, spleen, kidney and liver were harvested.
The fluorescence of the harvested tissue was determined using the Maestro™ in vivo fluorescence imaging system (Cambridge Research & Instrumentation, Inc., Woburn, Mass., USA).

[2] = target: T1, human SSTR5 (Homo sapiens, UniProt P35346); assay: Binding to transfected HEK cells expressing a single SSTRx subtype, FACS and fluorescence microscopy
T1 construct: expressed in transfected cells; host or cells: HEK-293, transient transfection, pcDNA 3.1
T1 sequence (P35346 whole entry): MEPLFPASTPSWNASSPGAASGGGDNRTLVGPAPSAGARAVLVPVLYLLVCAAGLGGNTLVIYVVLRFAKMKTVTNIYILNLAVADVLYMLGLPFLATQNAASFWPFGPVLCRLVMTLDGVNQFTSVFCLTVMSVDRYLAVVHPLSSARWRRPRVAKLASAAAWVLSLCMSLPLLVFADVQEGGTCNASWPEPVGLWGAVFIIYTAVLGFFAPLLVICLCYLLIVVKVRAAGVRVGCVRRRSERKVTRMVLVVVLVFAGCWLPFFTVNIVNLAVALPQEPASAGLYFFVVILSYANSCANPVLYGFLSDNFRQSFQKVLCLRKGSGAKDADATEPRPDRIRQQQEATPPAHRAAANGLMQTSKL
Description: (§1) The affinity of compounds 1-16 to each of the five SSTRx was tested using an in vitro model of transfected cell lines (HEK—human embryonic kidney), each expressing a single human SSTRx subtype. Biological activity assessment of the compounds to define a specific affinity to each subtype was performed by FACS and fluorescence imaging methods.
(§2) Human SSTRx were expressed in the cells by transient transfection. Each SSTR was expressed separately, creating five different cell lines using human gene transcript.
(§3) The transfection process is illustrated in FIG. 1. The transient transfection process was carried out before each experiment. Briefly, HEK cells were cultured in standard cell growth conditions. For testing, the cells were transferred into 96-well plates. The tested compounds were dissolved in DMSO and then diluted in a buffer solution to a final DMSO concentration of 5% as a composition according to the teachings herein. Various amounts of the thus-prepared compositions were added to the cells in medium in the 96-well plates and allowed to incubate for between 1 and 24 hours. Binding was determined using fluorescent microscopy and FACS.
(§4) Qualitative assessment of binding efficiency was done by visual inspection and digital photography using an inverted fluorescent microscope. Quantitative assessment was done using FACS.
(§5) HEK-293 cells (human embryonic kidney) were grown in Dulbecco's modified Eagle's medium (DMEM) supplemented with 4 mM glutamine, 10% fetal bovine serum (FBS) and 100 units/ml penicillin/streptomycin at 37° C./5% carbon dioxide. One day prior to transfection, the cells were trypsinized, counted and plated at a density of 3×10^5 per 35 mm diameter dish. Until 70% confluency, cells were transiently transfected with the pcDNA 3.1 vector bearing the coding region for the human SSTR human somatostatin receptor subtypes SSTR1-SSTR5. Transfections were carried out with JetPei transfection reagent (Polyplus-transfection, NY, USA) according to the manufacturer's recommendation. Briefly, 2 micrograms of plasmid DNA and 6 microliter of JetPei transfection reagent were used for each transfection. Each of the components were resuspended in 100 microliter of 150 mM NaCl, mixed and incubated for 25 minutes at room temperature and after incubation added to cells.
(§6) Cells were then seeded in a 96-well flat-bottom microplate (Costar, Corning, N.Y.) at a concentration of 5×10^4 cells/well. Twelve hours later, the supernatant was removed and replaced with fresh DMEM containing various (in the nM range) concentrations of tested compounds 1-16. The cells were incubated for additional time intervals ranging from 0.5-24 hr. At the end of the incubation period, supernatant was discarded and the cells were washed twice with cold PBS. The plates were examined using IX81 inverted microscope (Olympus, Japan) equipped with […] digital camera. Additionally, a FACS assay was used for quantitative analysis.
(§7) Quantitative assessment of binding affinity of Compounds 1-16 was performed by FACS in the transfected HEK cell model.
(§8) Quantitatively, specific binding affinity was assessed as the percentage of double stained [(GR=green and red indicating transfection)/(R is total red) less (G is green indicating unspecific binding)]: specific binding affinity=[GR/R−G]

[3] = target: T2, human SSTR4 (Homo sapiens, UniProt P31391); assay: Binding to transfected HEK cells expressing a single SSTRx subtype, FACS
T2 construct: expressed in transfected cells; host or cells: HEK-293, transient transfection, pcDNA 3.1
T2 sequence (P31391 whole entry): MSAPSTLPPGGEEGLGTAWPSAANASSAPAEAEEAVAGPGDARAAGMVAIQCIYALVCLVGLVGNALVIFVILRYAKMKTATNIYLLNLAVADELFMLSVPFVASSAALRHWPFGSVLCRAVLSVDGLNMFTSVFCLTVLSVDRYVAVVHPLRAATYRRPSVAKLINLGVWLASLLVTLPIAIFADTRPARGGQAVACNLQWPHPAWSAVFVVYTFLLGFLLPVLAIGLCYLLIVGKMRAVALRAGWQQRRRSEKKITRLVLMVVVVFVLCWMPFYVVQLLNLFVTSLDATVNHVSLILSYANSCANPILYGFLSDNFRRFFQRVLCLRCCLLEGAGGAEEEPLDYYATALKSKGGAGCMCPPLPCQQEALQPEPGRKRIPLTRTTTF
Description: as §1, §2, §3, §4, §5, §6, §7, §8

[4] = system: SSTR1-SSTR5; conditions: background statement; cited from earlier work
[5] = FACS, transfected HEK, specific binding affinity = percentage double stained [GR/R−G], 0 = no binding detected
[6] = Table 2 normalized according to the highest binding affinity of that compound
[7] = Table 2 normalized to Compound 1 (=100)

Which “Intensity in healthy tissue (in words)” value [1] does the source give for C[C@@H](O)[C@@H]1NC(=O)[C@H](CCCCN)NC(=O)[C@@H](Cc2c[nH]c3ccccc23)NC(=O)[C@H](Cc2c[nH]c3ccccc23)NC(=O)[C@H](Cc2ccccc2)NC(=O)[C@@H](NC(=O)[C@@H](Cc2ccccc2)NC(=O)CCCNC(=S)Nc2ccc3c(c2)C(=O)OC32c3ccc(O)cc3Oc3cc(O)ccc32)CSSCCN(CC(N)=O)C(=O)[C@H](Cc2ccccc2)NC1=O [Compound 1, FITC-GABA-DPhe-Cys*-Phe-Trp-DTrp-Lys-Thr-Phe-GlyS2*-NH2, reference compound] here?
Its value is “undetectable in liver tissue”.

Which “Intensity in healthy tissue (in words)” value [1] does the source give for C[C@@H](O)[C@@H]1NC(=O)[C@H](CCCCN)NC(=O)[C@@H](Cc2c[nH]c3ccccc23)NC(=O)[C@H](Cc2ccccc2)NC(=O)[C@@H](NC(=O)[C@H](CCCNC(=N)N)NC(=O)[C@@H](Cc2ccccc2)NC(=O)CCCNC(=S)Nc2ccc3c(c2)C(=O)OC32c3ccc(O)cc3Oc3cc(O)ccc32)CSSCCN(CC(N)=O)C(=O)[C@H](Cc2ccccc2)NC1=O [Compound 2, FITC-GABA-D-Phe-Arg-Cys-Phe-D-Trp-Lys-Thr-Phe-GlyS2] ({FITC-GABA}-[dF]RCF[dW]KTF[N(2-mercaptoethyl)Gly]-NH2; disulfide 3-9) here?
The value was “undetectable in spleen, kidney and liver tissue”.

Which results are given for CC(=O)NCCCC[C@@H]1NC(=O)[C@@H](Cc2c[nH]c3ccccc23)NC(=O)[C@H](Cc2c[nH]c3ccccc23)NC(=O)[C@H](Cc2ccccc2)NC(=O)[C@@H](NC(=O)[C@@H](Cc2ccccc2)NC(=O)CCCNC(=S)Nc2ccc3c(c2)C(=O)OC32c3ccc(O)cc3Oc3cc(O)ccc32)CSSCCN(CC(N)=O)C(=O)[C@H](Cc2ccccc2)NC(=O)[C@H]([C@@H](C)O)NC1=O [Compound 14, FITC-GABA-D-Phe-Cys-Phe-Trp-D-Trp-LysAc-Thr-Phe-GlyS2]?
Relative binding affinity SSTR5 [2, 5]: 2; Adjusted binding affinity SSTR5 [2, 6]: 0.67; Binding affinity to SSTR5 relative to Compound 1 [2, 7]: 7; Relative binding affinity SSTR4 [3, 5]: 3; Adjusted binding affinity SSTR4 [3, 6]: 1; Binding affinity to SSTR4 relative to Compound 1 [3, 7]: 13

Which “Affinity of binding to the SSTRx (in words)” value [4] does the source give for CC(C)[C@@H]1NC(=O)[C@H](CCCCN)NC(=O)[C@@H](Cc2c[nH]c3ccccc23)NC(=O)[C@H](Cc2ccc(O)cc2)NC(=O)[C@@H](NC(=O)[C@H](N)Cc2ccc3ccccc3c2)CSSC[C@@H](C(=O)N[C@H](C(N)=O)[C@@H](C)O)NC1=O [Lanreotide, Napht-Cys*-Tyr-Trp-Lys-Val-Cys*-Thr] here?
Its value is “high-affinity binding to SSTR2, moderate affinity binding to SSTRR3 and SSTR5, and almost no affinity binding to SSTR1 and SSTR4”.

For “DPhe-Cys*-Phe-DTrp-Lys-Thr-Cys*-Throl [Octreotide]”, which “Affinity of binding to the SSTRx (in words)” value [4] is on record?
The value was “high-affinity binding to SSTR2, moderate affinity binding to SSTRR3 and SSTR5, and almost no affinity binding to SSTR1 and SSTR4”.
